# The supplement of paper PMC11208160
# Assay: recombinant UMI read abundance after kanamycin selection (control-corrected) (log10(CPM+1)); higher = more efficient recombination; extreme values may be limits of the assay; sequences stand for … in AGTGCAGAGAAAATCGGCCAGTTTTCTCTGCCTGCAGTCCGCATGCCGTGGGACCCCTTGGGTTCTAACCTGTTGCCTAGATTTATGCAGCGGACTGCCTTTCTCCCAAAGTGATAAACCGG…AGGTTGGTTTCACT; site = the 11-nt donor
# In short: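 In Escherichia coli, a pool of donor and donor-binding-loop pairs, each with a 12-nt UMI, was tested for the IS621 bridge recombinase. Plating was on IPTG (0.07 mM) plus kanamycin, or without selection, in two replicates. Recombinant UMIs were amplified by PCR across the donor–target junction and sequenced, and counts were reported as log10(CPM+1) after averaging and control-derived scaling.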
# 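Also: IS621 bridge recombinase in Escherichia coli cells against a fixed T5 target plasmid.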
row,Sequence,recombinant UMI read abundance (log10)
1,AGTGTAACATGGACCGGTTTTCCCGGTAATCCGTATTTGCT (site AATGTAACTAG),1.36
2,AGTGTAACATGGACCGGTTTTCCCGGTAATCCGTATTTGCT (site ACTGTAACTAG),1.47
3,AGTGTAACATGGACCGGTTTTCCCGGTAATCCGTATTTGCT (site AGTGTAACTAG),1.94
4,AGTGTAACATGGACCGGTTTTCCCGGTAATCCGTATTTGCT (site ATTGTAACTAG),1.12
5,AGTGTCTCATGGACCGGTTTTCCCGGTAATCCGTATTTGAG (site AGTGTCTCTCT),1.2
6,AGTTAGGCATGGACCGGTTTTCCCGGTAATCCGTATTTGGA (site AGTTAGGCTTC),0.957
7,AGTTCAGCATGGACCGGTTTTCCCGGTAATCCGTATTTGAT (site AGTTCAGCTAT),1.05
8,AGTTCCTCATGGACCGGTTTTCCCGGTAATCCGTATTTGCA (site AGTTCCTCTTG),2.47
9,AGTTCGACATGGACCGGTTTTCCCGGTAATCCGTATTTGAC (site AGTTCGACTGT),0.845
10,AGTTGATCATGGACCGGTTTTCCCGGTAATCCGTATTTGAC (site AGTTGATCTGT),1.28
11,AGTTGCTCATGGACCGGTTTTCCCGGTAATCCGTATTTGAA (site AGTTGCTCTTT),0.47
12,AGTTGGCCATGGACCGGTTTTCCCGGTAATCCGTATTTGGG (site AGTTGGCCTCC),0.0248
13,AGTTGTTCATGGACCGGTTTTCCCGGTAATCCGTATTTGTT (site AGTTGTTCTAA),0.233
14,AGTTTCCCATGGACCGGTTTTCCCGGTAATCCGTATTTGTG (site AGATTCCCTCA),0.0216
15,AGTTTCCCATGGACCGGTTTTCCCGGTAATCCGTATTTGTG (site AGCTTCCCTCA),0.0227
16,AGTTTCCCATGGACCGGTTTTCCCGGTAATCCGTATTTGTG (site AGGTTCCCTCA),0.0056
17,AGTTTCCCATGGACCGGTTTTCCCGGTAATCCGTATTTGTG (site AGTTTCCCTCA),0.0252
18,AGTTTGCCATGGACCGGTTTTCCCGGTAATCCGTATTTGAA (site AGTTTGCCTTT),0.00758
19,ATAAACCCATGGACCGGTTTTCCCGGTAATCCGTATTTGAT (site ATAAACCCTAT),1.19
20,ATAAACTCATGGACCGGTTTTCCCGGTAATCCGTATTTGCG (site ATAAACTCTCG),3.23
21,ATAAAGGCATGGACCGGTTTTCCCGGTAATCCGTATTTGCT (site AAAAAGGCTAG),0.238
22,ATAAAGGCATGGACCGGTTTTCCCGGTAATCCGTATTTGCT (site ACAAAGGCTAG),1.63
23,ATAAAGGCATGGACCGGTTTTCCCGGTAATCCGTATTTGCT (site AGAAAGGCTAG),0.349

row,Sequence,recombinant UMI read abundance (log10)
1,ATAAAGGCATGGACCGGTTTTCCCGGTAATCCGTATTTGCT (site ATAAAGGCTAG),2.75
2,ATAACGCCATGGACCGGTTTTCCCGGTAATCCGTATTTGAG (site ATAACGCCTCT),0.00694
3,ATAACGCCATGGACCGGTTTTCCCGGTAATCCGTATTTGTC (site ATAACGCCTGA),1.58
4,ATAAGGCCATGGACCGGTTTTCCCGGTAATCCGTATTTGAA (site ATAAGGCCTAT),0.00331
5,ATAAGGCCATGGACCGGTTTTCCCGGTAATCCGTATTTGAA (site ATAAGGCCTCT),0.0201
6,ATAAGGCCATGGACCGGTTTTCCCGGTAATCCGTATTTGAA (site ATAAGGCCTGT),0
7,ATAAGGCCATGGACCGGTTTTCCCGGTAATCCGTATTTGAA (site ATAAGGCCTTT),0.404
8,ATAAGGCCATGGACCGGTTTTCCCGGTAATCCGTATTTGAG (site ATAAGGCCTAT),0.00358
9,ATAAGGCCATGGACCGGTTTTCCCGGTAATCCGTATTTGAG (site ATAAGGCCTCT),0.325
10,ATAAGGCCATGGACCGGTTTTCCCGGTAATCCGTATTTGAG (site ATAAGGCCTGT),0
11,ATAAGGCCATGGACCGGTTTTCCCGGTAATCCGTATTTGAG (site ATAAGGCCTTT),0.025
12,ATAAGGGCATGGACCGGTTTTCCCGGTAATCCGTATTTGAC (site ATAAGGACTGT),2.61
13,ATAAGGGCATGGACCGGTTTTCCCGGTAATCCGTATTTGAC (site ATAAGGCCTGT),0.00415
14,ATAAGGGCATGGACCGGTTTTCCCGGTAATCCGTATTTGAC (site ATAAGGGCTGT),2.79
15,ATAAGGGCATGGACCGGTTTTCCCGGTAATCCGTATTTGAC (site ATAAGGTCTGT),2.53
16,ATAAGGTCATGGACCGGTTTTCCCGGTAATCCGTATTTGAC (site ATAAGGACTGT),1.91
17,ATAAGGTCATGGACCGGTTTTCCCGGTAATCCGTATTTGAC (site ATAAGGCCTGT),1.04
18,ATAAGGTCATGGACCGGTTTTCCCGGTAATCCGTATTTGAC (site ATAAGGGCTGT),0.526
19,ATAAGGTCATGGACCGGTTTTCCCGGTAATCCGTATTTGAC (site ATAAGGTCTGT),3.4
20,ATACACACATGGACCGGTTTTCCCGGTAATCCGTATTTGGG (site ATACACACTCC),0.537
21,ATACAGCCATGGACCGGTTTTCCCGGTAATCCGTATTTGGT (site ATACAGCCTAC),0.00946
22,ATACATCCATGGACCGGTTTTCCCGGTAATCCGTATTTGAC (site AAACATCCTGT),0
23,ATACATCCATGGACCGGTTTTCCCGGTAATCCGTATTTGAC (site ACACATCCTGT),0

row,Sequence,recombinant UMI read abundance (log10)
1,ATACATCCATGGACCGGTTTTCCCGGTAATCCGTATTTGAC (site AGACATCCTGT),0
2,ATACATCCATGGACCGGTTTTCCCGGTAATCCGTATTTGAC (site ATACATCCTGT),1.12
3,ATACGAACATGGACCGGTTTTCCCGGTAATCCGTATTTGTC (site AAACGAACTGA),0
4,ATACGAACATGGACCGGTTTTCCCGGTAATCCGTATTTGTC (site ACACGAACTGA),0
5,ATACGAACATGGACCGGTTTTCCCGGTAATCCGTATTTGTC (site AGACGAACTGA),0
6,ATACGAACATGGACCGGTTTTCCCGGTAATCCGTATTTGTC (site ATACGAACTGA),2.83
7,ATACGGACATGGACCGGTTTTCCCGGTAATCCGTATTTGAA (site ATACGGACTTT),1.39
8,ATACTATCATGGACCGGTTTTCCCGGTAATCCGTATTTGCA (site ACAGTATCTTG),1.72
9,ATACTATCATGGACCGGTTTTCCCGGTAATCCGTATTTGCA (site ATACTATCTTG),2.84
10,ATAGACCCATGGACCGGTTTTCCCGGTAATCCGTATTTGAT (site ATAGACCCTAT),1.21
11,ATAGAGACATGGACCGGTTTTCCCGGTAATCCGTATTTGGT (site ATAGAGACTAC),1.75
12,ATAGAGACATGGACCGGTTTTCCCGGTAATCCGTATTTGGT (site ATCGAGACTAC),0.671
13,ATAGAGACATGGACCGGTTTTCCCGGTAATCCGTATTTGGT (site ATGGAGACTAC),0.992
14,ATAGAGACATGGACCGGTTTTCCCGGTAATCCGTATTTGGT (site ATTGAGACTAC),1.03
15,ATAGATACATGGACCGGTTTTCCCGGTAATCCGTATTTGCC (site ATAGATACTGG),2.54
16,ATAGCCTCATGGACCGGTTTTCCCGGTAATCCGTATTTGTA (site ATAGCCTCTTA),2.86
17,ATAGCTACATGGACCGGTTTTCCCGGTAATCCGTATTTGCG (site ATAGCTACTCG),2.1
18,ATAGCTACATGGACCGGTTTTCCCGGTAATCCGTATTTGTA (site ATAGCTACTTA),2.3
19,ATAGGTACATGGACCGGTTTTCCCGGTAATCCGTATTTGAC (site ATAGGTACTGT),2.8
20,ATAGGTACATGGACCGGTTTTCCCGGTAATCCGTATTTGAC (site CTAGGTACTGT),1.97
21,ATAGGTACATGGACCGGTTTTCCCGGTAATCCGTATTTGAC (site GTAGGTACTGT),1.68
22,ATAGGTACATGGACCGGTTTTCCCGGTAATCCGTATTTGAC (site TTAGGTACTGT),2.15
